Read-outs that look alike come from different tables or passages of the source.
Experiments:
[1] = In vitro skin penetration and metabolism, fresh viable pig skin on static Franz cells; details: 24 h; epidermis + dermis + receptor fluid
Source text: Fresh viable pig skin (without hot steam treatment, by-product from meat industry) was obtained from a local, commercial butcher (Hammoor, Germany). The back skin was from female pigs (bred from “Dänische Landrasse” (female) and Pietrain (male) pigs, ~130 days old, 100 kg body weight). Pig skin samples were gently dry-shaved and washed with water before use. For the experiment, 2 replicate discs from each of 3 donors were used.
Skin of full-thickness was mounted on static Franz cells with a 4.9 cm² application area. The receptor compartment of the diffusion cell was filled with approx. 5 ml RF (1% BSA, 0.9% NaCl, 0.05% gentamycin sulfate in water), above a magnetic stirrer set to low rotation. […] The experiment was conducted using non-occluded conditions.
The dermal absorption was calculated as the total amount present within epidermis (without the amount in the total SC strips), dermis and RF.

[2] = system: hiPSCs differentiated into cardiomyocytes, hepatocytes, or neural rosettes; details: human
in vitro = in vitro ADME
Method: […]. Samples were precipitated with an equal volume of acetonitrile containing internal standards (1 μM diazepam, 1 μM griseofulvin, 10 μM diclofenac) and then centrifuged (4800 x g, room temperature, 5 min) before analysis by UHPLC-MS/HRMS.
The amount of compound in the samples was expressed as percentage of remaining compound compared to time point zero (=100%). These percentages were plotted against the corresponding time points. In vitro intrinsic clearance (CLint) and half-life (t1/2) estimates were determined using the rate of precursor disappearance and following formula, based on the well-stirred liver model (Obach 1999):
t1/2 = half-life [min]; k = slope from the linear regression of log [test compound] versus time plot [1/min]
Where CLint = in vitro intrinsic clearance [μl/min/10^6 cells]; t1/2 = half-life [min]; k = slope of the linear regression of log [test compound] versus time plot [1/min]; V = ratio of incubation volume and cell number and fu = unbound fraction in the blood. […]

thyroid pathway = system: thyroid pathway; set-up: method as in ToxCast database; details: ref ToxCast database; cited from earlier work
HepG2 cells [3] = assay: Whole-genome transcriptomics dose response (toxicogenomics); details: analysis method 1; HepG2, 24 h
[4] = ref PubChem or the ECHA database; cited from earlier work
androgen receptor [5] = system: androgen receptor; set-up: method as in ToxCast database; details: ref ToxCast database; cited from earlier work
androgen receptor [6] = system: androgen receptor; set-up: method as in ToxCast database; details: ref ToxCast database; cited from earlier work; remark: listed apart in the source
HepG2 cells [7] = details: human, 24 h

O=C(O)c1ccccc1O [SA, salicylic acid]
Dermal absorption of individual analytes [1]: 6.9 ± 0.4 percentage of the applied dose
PoD [2]: 500 µM
Further metabolism in PHH (in vitro): not metabolized further
half-life at 20 µM (in vitro; both sexes, human, hepatocytes, Half-life in PHH): > 15.8 h
hepatocyte CLint at 20 µM (in vitro; both sexes, human, hepatocytes, In vitro intrinsic clearance (CLint, in vitro)): ~0.9 µL/min/1e6 cells
Further metabolism in PHH (in vitro; both, human, 240 min, 20 µM): not further metabolized
Thyroid pathway Reporter protein Antagonist: Call (thyroid pathway): Negative
PoD (BMDL, lowest pathway) (HepG2 cells [3]): 213 µM
Vapor pressure [4]: 0.0208 Pa
Androgen pathway receptor binding: Call (androgen receptor [5]): Negative
Androgen pathway mRNA induction: Call (androgen receptor [6]): Negative
PoD (BMDL, lowest pathway) (HepG2 cells [7]): 213 μM (method 1) µM
